Measured values from ChEMBL document CHEMBL1201862, “PubChem BioAssay data set” (2004).
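48-hour exposure; five concentrations; linearly interpolated endpoints. The concentration for 50% growth inhibition is given as GI50.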 The source made the active and inactive calls. Rule as the data show it: active = GI50 up to about 1.1 µM and inactive = higher.

What was measured:
Assay in all cases: NCI anticancer screen, dose series, 48 h
[1] = test system: 786-0
[2] = test system: A498
[3] = test system: HCT-116
[4] = test system: HOP-62
[5] = test system: IGROV-1
[6] = test system: K562
[7] = test system: Malme-3M
[8] = test system: SK-MEL-28
[9] = test system: SK-MEL-2
[10] = test system: SK-MEL-5
[11] = test system: SNB-19
[12] = test system: SNB-75
[13] = test system: SW-620
[14] = test system: UACC-257
[15] = test system: UO-31

In the case of Cc1nc2ccncc2[nH]1, the GI50 [1] is reported as > 100 µM (inactive), the GI50 [2] is reported as > 100 µM (inactive) and the GI50 [3] is reported as > 100 µM (inactive). The GI50 [4] was > 100 µM (inactive), the GI50 [5] was > 100 µM (inactive) and the GI50 [6] was > 100 µM (inactive). The GI50 [7] was > 100 µM (inactive), the GI50 [8] was > 100 µM (inactive) and the GI50 [9] was > 100 µM (inactive). For the same molecule, the GI50 [10] was > 100 µM (inactive), the GI50 [11] was > 100 µM (inactive) and the GI50 [12] was 24.8 µM (inactive). For the same molecule, the GI50 [13] was > 100 µM (inactive), the GI50 [14] was > 100 µM (inactive) and the GI50 [15] was > 100 µM (inactive).

For O=C1OC(CC(=O)c2ccc(Cl)cc2)C(Cl)=C1Cl (stereo not given), the GI50 [1] was > 100 µM (inactive), the GI50 [2] was > 100 µM (inactive) and the GI50 [3] was > 100 µM (inactive). The GI50 [4] was > 100 µM (inactive), the GI50 [5] was > 100 µM (inactive) and the GI50 [6] was 54.6 µM (inactive). For the same molecule, the GI50 [7] was > 100 µM (inactive), the GI50 [8] was > 100 µM (inactive) and the GI50 [9] was > 100 µM (inactive). For the same molecule, the GI50 [10] was > 100 µM (inactive), the GI50 [11] was > 100 µM (inactive) and the GI50 [12] was > 100 µM (inactive). For the same molecule, the GI50 [13] was > 100 µM (inactive), the GI50 [14] was > 100 µM (inactive) and the GI50 [15] was > 100 µM (inactive).

CSc1nc2c(nc(C)c(=O)n2C2OCC(OC(C)=O)C(OC(C)=O)C2OC(C)=O)c(=O)[nH]1 (stereo not given) was tested, and the GI50 [1] was > 100 µM (inactive), the GI50 [2] was > 100 µM (inactive) and the GI50 [3] was > 100 µM (inactive). The GI50 [4] was > 100 µM (inactive), the GI50 [5] was > 100 µM (inactive) and the GI50 [6] was > 100 µM (inactive). For the same molecule, the GI50 [7] was > 100 µM (inactive), the GI50 [8] was > 100 µM (inactive) and the GI50 [9] was > 100 µM (inactive). For the same molecule, the GI50 [10] was > 100 µM (inactive), the GI50 [11] was > 100 µM (inactive) and the GI50 [12] was > 100 µM (inactive). For the same molecule, the GI50 [13] was > 100 µM (inactive), the GI50 [14] was > 100 µM (inactive) and the GI50 [15] was > 100 µM (inactive).

In the case of CCN(CC)c1ccc2cc3ccc(N(CC)CC)cc3[o+]c2c1, the GI50 [1] is reported as 2.97 µM (inactive), the GI50 [2] is reported as 14.6 µM (inactive) and the GI50 [3] is reported as 0.29 µM (active). The GI50 [4] was 3.31 µM (inactive), the GI50 [5] was 2.08 µM (inactive) and the GI50 [6] was 2.82 µM (inactive). The GI50 [7] was 1.2 µM (inactive), the GI50 [8] was 2.56 µM (inactive) and the GI50 [9] was 1.34 µM (inactive). The GI50 [10] was 2.34 µM (inactive), the GI50 [11] was 7.8 µM (inactive) and the GI50 [12] was 5.37 µM (inactive). For the same molecule, the GI50 [13] was 0.237 µM (active), the GI50 [14] was 2.59 µM (inactive) and the GI50 [15] was 2.28 µM (inactive).

With Cc1nc(C(N)=S)sc1C(=O)CC(=O)C(=O)Nc1ccccc1[N+](=O)[O-] the GI50 [1] was > 100 µM (inactive), the GI50 [2] was > 100 µM (inactive) and the GI50 [3] was > 100 µM (inactive). The GI50 [4] was > 100 µM (inactive), the GI50 [5] was > 100 µM (inactive) and the GI50 [6] was > 100 µM (inactive). For the same molecule, the GI50 [7] was > 100 µM (inactive), the GI50 [8] was > 100 µM (inactive) and the GI50 [9] was > 100 µM (inactive). The GI50 [10] was > 100 µM (inactive), the GI50 [11] was > 100 µM (inactive) and the GI50 [12] was > 100 µM (inactive). For the same molecule, the GI50 [13] was > 100 µM (inactive), the GI50 [14] was > 100 µM (inactive) and the GI50 [15] was > 100 µM (inactive).

With COc1ccc(/C(=N/NC(N)=O)C2(O)C(=O)Nc3ccc([N+](=O)[O-])cc32)cc1 (stereo not given) the GI50 [1] was 15.7 µM (inactive), the GI50 [2] was 29.2 µM (inactive) and the GI50 [3] was 14.9 µM (inactive). For the same molecule, the GI50 [4] was 28.2 µM (inactive), the GI50 [5] was 31 µM (inactive) and the GI50 [6] was 22 µM (inactive). The GI50 [7] was > 10 µM (inactive), the GI50 [8] was 20 µM (inactive) and the GI50 [9] was 21.6 µM (inactive). For the same molecule, the GI50 [10] was 27.3 µM (inactive), the GI50 [11] was > 10 µM (inactive) and the GI50 [12] was 20.6 µM (inactive). For the same molecule, the GI50 [13] was 22.8 µM (inactive), the GI50 [14] was 21.1 µM (inactive) and the GI50 [15] was 20.5 µM (inactive).

For COC1C(CN[N+](=O)CC2OC3OC(C)(C)OC3C2OC)OC2OC(C)(C)OC21 (stereo not given), the GI50 [1] was > 100 µM (inactive), the GI50 [2] was > 100 µM (inactive) and the GI50 [3] was > 100 µM (inactive). The GI50 [4] was > 100 µM (inactive), the GI50 [5] was > 100 µM (inactive) and the GI50 [6] was > 10 µM (inactive). For the same molecule, the GI50 [7] was > 100 µM (inactive), the GI50 [8] was > 100 µM (inactive) and the GI50 [9] was > 100 µM (inactive). The GI50 [10] was > 100 µM (inactive), the GI50 [11] was > 100 µM (inactive) and the GI50 [12] was > 100 µM (inactive). For the same molecule, the GI50 [13] was > 100 µM (inactive), the GI50 [14] was > 100 µM (inactive) and the GI50 [15] was > 100 µM (inactive).
